Test results: US11590142B2, “Oxazolidinone antibiotic compounds and process of preparation” (Bugworks Research, Inc., priority 2018, dated 2023)
Converted amounts (≈) assume the structure as drawn.

Experiments:
Assay type in all cases: cell-based
[1] = test system: Pseudomonas aeruginosa ATCC 27853; test: Minimum Inhibitory Concentration (MIC) in LB media; details: ATCC27853, read-out: Minimum Inhibitory Concentration P. aurigenosa ATCC 27853
Experimental: (§1) Biological Activity (Antibacterial activity): The compounds of Formula (I) are of interest due to their potent antibacterial effects. […] The medium sterility is checked by incubating at 37° C. for a period of 48 h. Bacterial cultures that are stored as glycerol stocks at -80° C. are sub cultured on LB agar plates to obtain isolated colonies. A single colony of each strain is cultured in LB broth. The cultures are incubated at 37° C., 200 rpm till they reach an optical density (OD at 600 nm) of 0.8 to 1. […] Test compounds are dissolved in dimethyl sulfoxide (DMSO) to a stock concentration of 4 mg/mi. A twofold dilution series of this DMSO stock is prepared in a 96 well V bottom microtitre plate from rows A to H. A 3 μL volume of these dilutions are transferred to a 96-well flat bottom microtitre assay plate. Controls to monitor the effects of DMSO and media sterility are included. Each well is inoculated with 150 μL of the above diluted culture. The plates are incubated at 37° C. overnight in a humidified incubator. The following morning, the plates are read using a Spectrophotometer at 600 nm wavelength.

[2] = test system: Klebsiella pneumoniae ATCC 13883; test: Minimum Inhibitory Concentration (MIC) in LB media; details: ATCC13883, read-out: Minimum Inhibitory Concentration K. pneumoniae ATCC 13883
Experimental: as §1

[3] = test system: Staphylococcus aureus ATCC 29213; test: Minimum Inhibitory Concentration (MIC) in LB media; details: ATCC29213, read-out: Minimum Inhibitory Concentration S. aureus ATCC 29213
Experimental: as §1

[4] = test system: Enterococcus faecalis ATCC 29212; test: Minimum Inhibitory Concentration (MIC) in LB media; details: ATCC29212, read-out: Minimum Inhibitory Concentration E. faecalis ATCC 29212
Experimental: as §1

[5] = test system: Acinetobacter baumannii ATCC 19606; test: Minimum Inhibitory Concentration (MIC) in LB media; details: ATCC19606
Experimental: as §1

[6] = test system: Escherichia coli ATCC 25922; test: Minimum Inhibitory Concentration (MIC) in LB media; details: ATCC25922, read-out: Minimum Inhibitory Concentration E. coli ATCC 25922
Experimental: as §1

[7] = target: human ether a go-go related gene (hERG) K+ channel (Homo sapiens (Human), UniProt Q12809); test: hERG inhibition assay, QPatch HTX automated electrophysiology; details: CHO cell line stably expressing hERG, whole-cell patch clamp, maximum test concentration 300 μM
Experimental: The compounds were tested for inhibition of the human ether a go-go related gene (hERG) K+ channel using QPatch HTX automated electrophysiology. […] Compounds were solubilised to 100 mM in DMSO before dilution in HBPS to 300 μM. […] Electrophysiological recordings were made from a Chinese Hamster Ovary cell line stably expressing the full-length hERG potassium channel. Single cell ionic currents were measured in whole-cell patch clamp configuration at room temperature (21-23° C.) using the QPatch HTX platform (Sophion). Intracellular solution contained (mM): 120 KF, 20 KCl, 10 EGTA, 10 HEPES and was buffered to pH 7.3. […] Cells were clamped at a holding potential of −80 mV. Cells were stepped to +20 mV for 2 s then −40 mV for 3s before returning to the holding potential. This sweep was repeated 10 times at 10 s intervals. hERG currents were measured from the tail step and referenced to the holding current. Compounds were then incubated for 2 minutes prior to a second measurement of ion channel current using an identical pulse train.

E. coli ATCC25922 = test: Antibacterial susceptibility study, reference strain, CLSI guidelines
K. pneumoniae ATCC13883 = test: as above
[8] = test system: E. cloacae clinical strains; test: Antibacterial susceptibility studies (MIC50 and MIC90), clinical strains, CLSI guidelines
[9] = test system: A. baumannii clinical strains; test: as above
E. coli clinical strains = test: as above
[10] = test system: P. aurigenosa clinical strains; test: as above
A. baumannii ATCC19606 = test: Antibacterial susceptibility study, reference strain, CLSI guidelines
[11] = test system: K. pneumoniae clinical strains; test: Antibacterial susceptibility studies (MIC50 and MIC90), clinical strains, CLSI guidelines
P. aurigenosa ATCC27853 = test: Antibacterial susceptibility study, reference strain, CLSI guidelines

Chain of human ether a go-go related gene (hERG) K+ channel (Q12809 whole entry): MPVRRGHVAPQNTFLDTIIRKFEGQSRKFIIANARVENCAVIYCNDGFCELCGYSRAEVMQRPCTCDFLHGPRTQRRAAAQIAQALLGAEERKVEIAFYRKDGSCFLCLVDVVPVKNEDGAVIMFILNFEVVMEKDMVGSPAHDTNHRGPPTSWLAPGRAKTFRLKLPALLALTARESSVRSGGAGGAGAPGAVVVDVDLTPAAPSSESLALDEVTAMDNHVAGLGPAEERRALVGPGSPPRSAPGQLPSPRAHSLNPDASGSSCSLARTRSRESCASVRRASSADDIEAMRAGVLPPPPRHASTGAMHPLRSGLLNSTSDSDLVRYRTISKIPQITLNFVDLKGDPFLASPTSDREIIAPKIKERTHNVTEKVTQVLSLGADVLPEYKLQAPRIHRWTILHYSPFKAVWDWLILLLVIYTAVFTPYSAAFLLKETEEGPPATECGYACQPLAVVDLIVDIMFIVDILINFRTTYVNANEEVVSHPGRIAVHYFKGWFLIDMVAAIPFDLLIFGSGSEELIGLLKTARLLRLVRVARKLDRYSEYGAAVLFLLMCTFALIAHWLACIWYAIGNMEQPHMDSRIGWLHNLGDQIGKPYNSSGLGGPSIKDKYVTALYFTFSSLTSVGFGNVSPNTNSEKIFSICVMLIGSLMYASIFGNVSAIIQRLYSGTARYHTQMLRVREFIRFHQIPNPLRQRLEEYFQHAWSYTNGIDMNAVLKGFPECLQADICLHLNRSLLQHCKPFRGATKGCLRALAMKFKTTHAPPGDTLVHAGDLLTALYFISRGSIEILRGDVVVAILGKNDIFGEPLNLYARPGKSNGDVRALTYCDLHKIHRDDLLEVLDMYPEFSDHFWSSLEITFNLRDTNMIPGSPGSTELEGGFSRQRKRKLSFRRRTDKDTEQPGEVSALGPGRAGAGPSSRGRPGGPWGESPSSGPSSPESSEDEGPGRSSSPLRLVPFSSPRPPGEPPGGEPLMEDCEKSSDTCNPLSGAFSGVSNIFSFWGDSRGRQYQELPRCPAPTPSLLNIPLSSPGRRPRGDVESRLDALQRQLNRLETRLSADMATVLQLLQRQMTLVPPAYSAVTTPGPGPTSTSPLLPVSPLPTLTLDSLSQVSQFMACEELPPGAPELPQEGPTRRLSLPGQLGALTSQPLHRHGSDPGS

Row | SMILES | MIC [1] [µg/mL] | MIC [2] [µg/mL] | MIC [3] [µg/mL] | MIC [4] [µg/mL] | MIC [5] [µg/mL] | MIC [6] [µg/mL] | IC50 [7] [µM] | further results
1 | Cn1c(=O)ccc2ncc(OCCNC[C@@H]3CN(c4ccc5c(n4)NC(=O)CO5)C(=O)O3)nc21 [Compound 6, (R)-6-(5-(((2-((5-methyl-6-oxo-5,6-dihydropyrido[2,3-b]pyrazin-3-yl)oxy)ethyl)amino)methyl)-2-oxooxazolidin-3-yl)-2H-pyrido[3,2-b][1,4]oxazin-3(4H)-one] | 2 (≈ 4.28 µM) | 0.25 (≈ 0.535 µM) | 0.13 (≈ 0.278 µM) | 0.25 (≈ 0.535 µM) | 0.13 (≈ 0.278 µM) | 0.13 (≈ 0.278 µM) | 60 | –
2 | C[C@@H](O)[C@H]1C(=O)N2C(C(=O)O)=C(S[C@@H]3CN[C@H](C(=O)N(C)C)C3)[C@H](C)[C@H]12 [Meropenem, reference compound] | – | – | – | – | – | – | – | ATCC25922 (MIC) (E. coli ATCC25922): 0.06 µg/mL; ATCC13883 (MIC) (K. pneumoniae ATCC13883): 0.06 µg/mL; MIC50 [8]: 0.25 µg/mL (≈ 0.652 µM); MIC90 [8]: 16 µg/mL (≈ 41.7 µM); Minimum (MIC) [8]: 0.06 µg/mL; MIC50 [9]: 8 µg/mL (≈ 20.9 µM); MIC90 [9]: 32 µg/mL (≈ 83.4 µM); Minimum (MIC) ([9]; in µg/mL): 0.03125; MIC50 (E. coli clinical strains): 0.06 µg/mL (≈ 0.156 µM); MIC90 (E. coli clinical strains): 4 µg/mL (≈ 10.4 µM); Minimum (MIC) (E. coli clinical strains): 0.03 µg/mL; MIC50 [10]: 2 µg/mL (≈ 5.22 µM); MIC90 [10]: 8 µg/mL (≈ 20.9 µM); Minimum (MIC) [10]: 0.03 µg/mL; ATCC19606 (MIC) (A. baumannii ATCC19606): 0.5 µg/mL; MIC50 [11]: 1 µg/mL (≈ 2.61 µM); MIC90 [11]: 16 µg/mL (≈ 41.7 µM); Minimum (MIC) [11]: 0.03 µg/mL; ATCC27853 (MIC) (P. aurigenosa ATCC27853): 0.5 µg/mL
3 | Cn1c(=O)cnc2cc(Cl)c(OCCNC[C@H]3CN(c4cnc5c(n4)NC(=O)CO5)C(=O)O3)nc21 [Compound 12, (S)-6-(5-(((2-((7-Chloro-4-methyl-3-oxo-3,4-dihydropyrido[2,3-b]pyrazin-6-yl)oxy)ethyl)amino)methyl)-2-oxooxazolidin-3-yl)-2H-pyrazino[2,3-b][1,4]oxazin-3(4H)-one] | 4 (≈ 7.95 µM) | 0.25 (≈ 0.497 µM) | 0.125 (≈ 0.249 µM) | 0.25 (≈ 0.497 µM) | 0.5 (≈ 0.994 µM) | 0.125 (≈ 0.249 µM) | 98 | –
4 | Cn1c(=O)ccc2ncc(OCCNC[C@H]3CN(c4ccc5c(n4)NC(=O)CO5)C(=O)O3)nc21 [Compound 5, (S)-6-(5-(((2-((5-methyl-6-oxo-5,6-dihydropyrido[2,3-b]pyrazin-3-yl)oxy)ethyl)amino)methyl)-2-oxooxazolidin-3-yl)-2H1-pyrido[3,2-b][1,4]oxazin-3(4H)-one] | 4 (≈ 8.56 µM) | 0.25 (≈ 0.535 µM) | 0.25 (≈ 0.535 µM) | 0.5 (≈ 1.07 µM) | 0.25 (≈ 0.535 µM) | 0.25 (≈ 0.535 µM) | 82 | –
5 | CCn1c(=O)cnc2ccc(OCCNC[C@H]3CN(c4cnc5c(n4)NC(=O)CO5)C(=O)O3)nc21 [Compound 11, (S)-6-(5-(((2-((4-ethyl-3-oxo-3,4-dihydropyrido[2,3-b]pyrazin-6-yl)oxy)ethyl)amino)methyl)-2-oxooxazolidin-3-yl)-2H-pyrazino[2,3-b][1,4]oxazin-3(4H)-one] | 2 (≈ 4.15 µM) | 0.5 (≈ 1.04 µM) | 0.03 (≈ 0.0622 µM) | 1 (≈ 2.07 µM) | 0.5 (≈ 1.04 µM) | 0.125 (≈ 0.259 µM) | – | –
6 | Cn1c(=O)cnc2ccc(OCCNC[C@H]3CN(c4ccc5c(n4)NC(=O)CO5)C(=O)O3)nc21 [Compound 3, (S)-6-(5-(((2-((4-methyl-3-oxo-3,4-dihydropyrido[2,3-b]pyrazin-6-yl)oxy)ethyl)amino)methyl)-2-oxooxazolidin-3-yl)-2H1-pyrido[3,2-b][1,4]oxazin-3(4H)-one] | 2 (≈ 4.28 µM) | 0.25 (≈ 0.535 µM) | 0.06 (≈ 0.128 µM) | 0.25 (≈ 0.535 µM) | 0.06 (≈ 0.128 µM) | 0.06 (≈ 0.128 µM) | 40 | –
7 | Cn1c(=O)cnc2ccc(OCCNC[C@@H]3CN(c4ccc5c(n4)NC(=O)CO5)C(=O)O3)nc21 [Compound 4, (R)-6-(5-(((2-((4-methyl-3-oxo-3,4-dihydropyrido[2,3-b]pyrazin-6-yl)oxy)ethyl)amino)methyl)-2-oxooxazolidin-3-yl)-2H-pyrido[3,2-b][1,4]oxazin-3(4H)-one] | 2 (≈ 4.28 µM) | 0.25 (≈ 0.535 µM) | 0.06 (≈ 0.128 µM) | 0.25 (≈ 0.535 µM) | 0.06 (≈ 0.128 µM) | 0.06 (≈ 0.128 µM) | 38 | –

Further lines, with some results ahead:

Row | MIC [1] [µg/mL] | MIC [2] [µg/mL] | MIC [3] [µg/mL] | MIC [4] [µg/mL] | MIC [5] [µg/mL] | MIC [6] [µg/mL] | SMILES | IC50 [7] [µM] | further results
8 | 0.1 (≈ 0.302 µM) | 0.05 (≈ 0.151 µM) | 0.4 (≈ 1.21 µM) | 0.4 (≈ 1.21 µM) | 0.4 (≈ 1.21 µM) | 0.012 (≈ 0.0362 µM) | O=C(O)c1cn(C2CC2)c2cc(N3CCNCC3)c(F)cc2c1=O [Ciprofloxacin, reference compound] | – | –
9 | 1 (≈ 2.06 µM) | 0.25 (≈ 0.514 µM) | 0.06 (≈ 0.123 µM) | 0.25 (≈ 0.514 µM) | 0.5 (≈ 1.03 µM) | 0.06 (≈ 0.123 µM) | Cn1c(=O)cnc2cc(F)c(OCCNC[C@H]3CN(c4cnc5c(n4)NC(=O)CO5)C(=O)O3)nc21 [Compound 10, (S)-6-(5-(((2-((7-fluoro-4-methyl-3-oxo-3,4-dihydropyrido[2,3-b]pyrazin-6-yl)oxy)ethyl)amino)methyl)-2-oxooxazolidin-3-yl)-2H-pyrazino[2,3-b][1,4]oxazin-3(4H)-one] | > 300 | –
10 | 1 (≈ 2.13 µM) | 0.25 (≈ 0.534 µM) | 0.125 (≈ 0.267 µM) | 0.5 (≈ 1.07 µM) | 0.5 (≈ 1.07 µM) | 0.06 (≈ 0.128 µM) | Cn1c(=O)cnc2ccc(OCCNC[C@@H]3CN(c4cnc5c(n4)NC(=O)CO5)C(=O)O3)nc21 [Compound 8, (R)-6-(5-(((2-((4-methyl-3-oxo-3,4-dihydropyrido[2,3-b]pyrazin-6-yl)oxy)ethyl)amino)methyl)-2-oxooxazolidin-3-yl)-2H1-pyrazino[2,3-b][1,4]oxazin-3(4H)-one] | > 300 | –
11 | 0.5 (≈ 1.03 µM) | 0.03 (≈ 0.0619 µM) | ≤ 0.03 | 0.1 (≈ 0.206 µM) | 0.03 (≈ 0.0619 µM) | 0.03 (≈ 0.0619 µM) | Cn1c(=O)cnc2ccc(OCCNC[C@H]3CN(c4cnc5c(n4)NC(=O)CS5)C(=O)O3)nc21 [Compound 13, (S)-5-(((2-((4-Methyl-3-oxo-3,4-dihydropyrido[2,3-b]pyrazin-6-yl)oxy)ethyl)amino)methyl)-3-(3-oxo-3,4-dihydro-2H-pyrazino[2,3-b][1,4]thiazin-6-yl)oxazolidin-2-one] | – | –
12 | 1 (≈ 2.08 µM) | 0.25 (≈ 0.519 µM) | 0.13 (≈ 0.27 µM) | 0.5 (≈ 1.04 µM) | 0.06 (≈ 0.125 µM) | 0.06 (≈ 0.125 µM) | Cn1c(=O)cnc2ccc(OCCNCCC3CN(c4ccc5c(n4)NC(=O)CO5)C(=O)O3)nc21 (centres unmarked) [Compound 1, 6-(5-(2-((2-((4-methyl-3-oxo-3,4-dihydropyrido[2,3-b]pyrazin-6-yl)oxy)ethyl)amino)ethyl)-2-oxooxazolidin-3-yl)-2H-pyrido[3,2-b][1,4]oxazin-3(4H)-one] | – | –
13 | 0.5 (≈ 1.04 µM) | 0.25 (≈ 0.519 µM) | 0.06 (≈ 0.125 µM) | 1 (≈ 2.08 µM) | 0.06 (≈ 0.125 µM) | 0.13 (≈ 0.27 µM) | Cn1c(=O)ccc2ncc(OCCNCCC3CN(c4ccc5c(n4)NC(=O)CO5)C(=O)O3)nc21 (centres unmarked) [Compound 2, 6-(5-(2-((2-((5-methyl-6-oxo-5,6-dihydropyrido[2,3-b]pyrazin-3-yl)oxy)ethyl)amino)ethyl)-2-oxooxazolidin-3-yl)-2H-pyrido[3,2-b][1,4]oxazin-3(4H)-one] | – | –
